# ChEMBL document CHEMBL5230109, “Recent advances in epigenetic proteolysis targeting chimeras (Epi-PROTACs)” (Eur J Med Chem, 2020)
# Tests used:
# [1] = molecular target: T1, von Hippel-Lindau disease tumor suppressor/Transcription intermediary factor 1-alpha (Homo sapiens, UniProt O15164+P40337); experiment: PROTAC activity at TRIM24/VHL (unknown origin) assessed as degradation protein; type: protein assay
# Polycomb protein EED [2] = molecular target: T2, Polycomb protein EED (Homo sapiens, UniProt O75530); experiment: Binding affinity to PRC2 catalytic core EED (unknown origin) by surface plasmon resonance assay
# T2 sequence (O75530 whole entry): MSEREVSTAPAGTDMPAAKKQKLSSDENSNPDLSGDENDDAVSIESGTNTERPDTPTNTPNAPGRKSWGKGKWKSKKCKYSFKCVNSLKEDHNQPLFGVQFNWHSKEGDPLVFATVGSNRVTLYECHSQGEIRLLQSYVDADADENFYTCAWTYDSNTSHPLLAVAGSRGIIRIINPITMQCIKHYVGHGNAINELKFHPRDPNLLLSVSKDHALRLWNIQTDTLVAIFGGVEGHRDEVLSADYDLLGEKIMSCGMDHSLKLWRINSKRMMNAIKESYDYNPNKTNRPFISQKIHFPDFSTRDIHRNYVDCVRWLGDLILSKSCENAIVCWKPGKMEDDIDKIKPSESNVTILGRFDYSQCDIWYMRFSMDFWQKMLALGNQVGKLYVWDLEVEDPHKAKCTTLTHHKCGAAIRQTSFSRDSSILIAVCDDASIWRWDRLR
# [3] = Inhibition of PRC2 catalytic core MTase activity (unknown origin) by MTase Glo assay; parameters: species or system Homo sapiens
# [4] = molecular target: T3, Bromodomain-containing protein 2 (Homo sapiens, UniProt P25440); experiment: Binding affinity to BRD2 BD1 domain (unknown origin)
# T3 sequence (P25440 whole entry, the tested form may be a part): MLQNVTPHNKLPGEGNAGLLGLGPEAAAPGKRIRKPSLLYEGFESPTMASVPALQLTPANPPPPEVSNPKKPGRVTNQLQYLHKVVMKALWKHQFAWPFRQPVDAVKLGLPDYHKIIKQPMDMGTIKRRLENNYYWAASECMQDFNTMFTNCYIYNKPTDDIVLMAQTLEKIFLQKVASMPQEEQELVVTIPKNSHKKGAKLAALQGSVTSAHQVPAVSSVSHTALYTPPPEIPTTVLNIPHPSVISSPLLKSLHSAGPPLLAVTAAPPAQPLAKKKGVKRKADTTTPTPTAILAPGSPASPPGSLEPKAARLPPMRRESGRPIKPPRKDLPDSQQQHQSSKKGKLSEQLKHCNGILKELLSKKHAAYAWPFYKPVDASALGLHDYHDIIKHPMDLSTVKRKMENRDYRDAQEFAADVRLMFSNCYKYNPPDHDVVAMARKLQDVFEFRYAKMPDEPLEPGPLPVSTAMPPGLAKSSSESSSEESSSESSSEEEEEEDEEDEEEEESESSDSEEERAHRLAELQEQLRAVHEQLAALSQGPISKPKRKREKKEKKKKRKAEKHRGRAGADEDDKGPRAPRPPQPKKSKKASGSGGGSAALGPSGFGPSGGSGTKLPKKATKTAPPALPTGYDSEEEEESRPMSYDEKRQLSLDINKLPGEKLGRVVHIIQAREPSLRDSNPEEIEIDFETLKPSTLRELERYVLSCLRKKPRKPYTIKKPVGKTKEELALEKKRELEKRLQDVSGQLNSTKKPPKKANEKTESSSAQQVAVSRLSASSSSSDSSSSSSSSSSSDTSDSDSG
# [5] = molecular target: T3, Bromodomain-containing protein 2; experiment: Binding affinity to BRD2 BD2 domain (unknown origin)
# [6] = molecular target: T4, Bromodomain-containing protein 3 (Homo sapiens, UniProt Q15059); experiment: Binding affinity to BRD3 BD1 domain (unknown origin)
# [7] = molecular target: T4, Bromodomain-containing protein 3; experiment: Binding affinity to BRD3 BD2 domain (unknown origin)
# [8] = molecular target: T5, Bromodomain-containing protein 4 (Homo sapiens, UniProt O60885); experiment: Binding affinity to BRD4 BD1 domain (unknown origin)
# [9] = molecular target: T5, Bromodomain-containing protein 4; experiment: Binding affinity to BRD4 BD2 domain (unknown origin)
# [10] = molecular target: T6, Protein cereblon/Protein deacetylase HDAC6 (Homo sapiens, UniProt Q96SW2+Q9UBN7); experiment: PROTAC activity at HDAC6/CRBN in human MM.1S cells measured after 24 hrs; type: cell-based, MM1.S
# T6 sequence (Q9UBN7 whole entry): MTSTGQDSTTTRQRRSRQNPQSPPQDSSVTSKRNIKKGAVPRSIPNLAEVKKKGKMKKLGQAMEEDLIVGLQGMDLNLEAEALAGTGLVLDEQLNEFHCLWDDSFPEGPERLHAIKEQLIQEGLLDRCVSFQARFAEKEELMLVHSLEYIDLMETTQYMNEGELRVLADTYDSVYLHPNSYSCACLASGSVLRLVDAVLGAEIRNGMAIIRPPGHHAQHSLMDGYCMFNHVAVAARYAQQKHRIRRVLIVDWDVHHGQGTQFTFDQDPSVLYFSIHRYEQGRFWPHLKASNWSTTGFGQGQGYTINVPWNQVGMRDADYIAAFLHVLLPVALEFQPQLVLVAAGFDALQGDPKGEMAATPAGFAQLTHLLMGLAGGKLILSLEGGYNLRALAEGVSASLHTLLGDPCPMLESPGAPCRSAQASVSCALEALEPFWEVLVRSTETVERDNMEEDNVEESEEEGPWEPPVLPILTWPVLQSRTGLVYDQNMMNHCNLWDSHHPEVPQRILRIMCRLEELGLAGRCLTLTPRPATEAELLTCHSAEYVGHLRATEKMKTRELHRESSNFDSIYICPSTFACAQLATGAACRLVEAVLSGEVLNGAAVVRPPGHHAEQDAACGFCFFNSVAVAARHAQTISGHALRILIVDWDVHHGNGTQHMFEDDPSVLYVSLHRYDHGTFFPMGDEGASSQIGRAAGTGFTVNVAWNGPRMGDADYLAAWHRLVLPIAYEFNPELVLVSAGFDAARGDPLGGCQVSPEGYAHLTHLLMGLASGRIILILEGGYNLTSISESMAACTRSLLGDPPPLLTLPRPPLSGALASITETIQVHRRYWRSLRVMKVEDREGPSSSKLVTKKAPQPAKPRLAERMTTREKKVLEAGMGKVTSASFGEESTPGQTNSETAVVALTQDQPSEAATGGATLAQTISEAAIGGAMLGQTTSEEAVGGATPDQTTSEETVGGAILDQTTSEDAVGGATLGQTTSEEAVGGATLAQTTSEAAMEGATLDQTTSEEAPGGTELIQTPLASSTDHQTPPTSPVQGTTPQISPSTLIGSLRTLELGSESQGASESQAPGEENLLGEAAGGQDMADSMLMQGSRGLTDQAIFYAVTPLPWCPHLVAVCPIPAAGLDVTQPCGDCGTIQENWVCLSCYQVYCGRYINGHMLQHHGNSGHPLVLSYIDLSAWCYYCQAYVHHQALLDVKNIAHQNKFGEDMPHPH
# T6 sequence (Q96SW2 whole entry): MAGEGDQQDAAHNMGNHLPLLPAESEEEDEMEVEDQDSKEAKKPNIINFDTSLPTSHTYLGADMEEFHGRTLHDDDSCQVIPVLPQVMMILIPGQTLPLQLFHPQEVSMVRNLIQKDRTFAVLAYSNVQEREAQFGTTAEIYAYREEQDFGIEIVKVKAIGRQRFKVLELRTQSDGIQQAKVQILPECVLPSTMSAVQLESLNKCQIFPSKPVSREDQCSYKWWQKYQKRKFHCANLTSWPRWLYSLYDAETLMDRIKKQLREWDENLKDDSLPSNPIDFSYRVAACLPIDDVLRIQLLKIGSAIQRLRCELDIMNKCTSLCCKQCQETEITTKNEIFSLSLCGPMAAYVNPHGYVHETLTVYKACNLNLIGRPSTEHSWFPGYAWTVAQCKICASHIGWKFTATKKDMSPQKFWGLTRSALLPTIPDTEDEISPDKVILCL
# [11] = molecular target: T1, von Hippel-Lindau disease tumor suppressor/Transcription intermediary factor 1-alpha; experiment: PROTAC activity at TRIM24/VHL in human HEK293FT cells assessed as degradation protein at 5 uM measured after 24 hrs; type: cell-based
# [12] = molecular target: T1, von Hippel-Lindau disease tumor suppressor/Transcription intermediary factor 1-alpha; experiment: PROTAC activity at TRIM24/VHL in human MOLM-13 cells assessed as degradation protein at 5 uM measured after 24 hrs; type: cell-based
# Histone deacetylase 1 = Histone deacetylase 1 (Homo sapiens, UniProt Q13547); experiment: Inhibition of human recombinant GST-tagged HDAC1 incubated for 20 mins by HDAC Glo assay
# Histone deacetylase 2 = Histone deacetylase 2 (Homo sapiens, UniProt Q92769); experiment: Inhibition of human recombinant GST-tagged HDAC2 incubated for 20 mins by HDAC Glo assay
# Histone deacetylase 3 = Histone deacetylase 3 (Homo sapiens, UniProt O15379); experiment: Inhibition of human recombinant HDAC3 incubated for 20 mins by HDAC Glo assay
# [13] = molecular target: Protein deacetylase HDAC6 (Homo sapiens, UniProt Q9UBN7); experiment: Inhibition of human recombinant GST-tagged HDAC6 incubated for 20 mins by HDAC Glo assay
# Protein deacetylase HDAC6, sequence (Q9UBN7 whole entry): as the sequence (Q9UBN7 whole entry) above
# Histone deacetylase 8 = Histone deacetylase 8 (Homo sapiens, UniProt Q9BY41); experiment: Inhibition of human recombinant His-tagged HDAC8 incubated for 20 mins by HDAC Glo assay
# [14] = molecular target: Polyamine deacetylase HDAC10 (Homo sapiens, UniProt Q969S8); experiment: Inhibition of human recombinant His-tagged HDAC10 incubated for 20 mins by HDAC Glo assay
# [15] = molecular target: T7, von Hippel-Lindau disease tumor suppressor/SWI/SNF-related matrix-associated actin-dependent regulator of chromatin subfamily A member 2 (Homo sapiens, UniProt P40337+P51531); experiment: PROTAC activity at SMARCA2/VHL in human MV4-11 cells assessed as degradation protein measured after 18 hrs; type: cell-based
# [16] = molecular target: von Hippel-Lindau disease tumor suppressor/SWI/SNF-related matrix-associated actin-dependent regulator of chromatin subfamily A member 4 (Homo sapiens, UniProt P40337+P51532); experiment: PROTAC activity at SMARCA4/VHL in human MV4-11 cells assessed as degradation protein measured after 18 hrs; type: cell-based
# [17] = molecular target: T8, Protein polybromo-1/von Hippel-Lindau disease tumor suppressor (Homo sapiens, UniProt P40337+Q86U86); experiment: PROTAC activity at PBRM1/VHL in human MV4-11 cells assessed as degradation protein measured after 18 hrs; type: cell-based
# T8 sequence (Q86U86 whole entry): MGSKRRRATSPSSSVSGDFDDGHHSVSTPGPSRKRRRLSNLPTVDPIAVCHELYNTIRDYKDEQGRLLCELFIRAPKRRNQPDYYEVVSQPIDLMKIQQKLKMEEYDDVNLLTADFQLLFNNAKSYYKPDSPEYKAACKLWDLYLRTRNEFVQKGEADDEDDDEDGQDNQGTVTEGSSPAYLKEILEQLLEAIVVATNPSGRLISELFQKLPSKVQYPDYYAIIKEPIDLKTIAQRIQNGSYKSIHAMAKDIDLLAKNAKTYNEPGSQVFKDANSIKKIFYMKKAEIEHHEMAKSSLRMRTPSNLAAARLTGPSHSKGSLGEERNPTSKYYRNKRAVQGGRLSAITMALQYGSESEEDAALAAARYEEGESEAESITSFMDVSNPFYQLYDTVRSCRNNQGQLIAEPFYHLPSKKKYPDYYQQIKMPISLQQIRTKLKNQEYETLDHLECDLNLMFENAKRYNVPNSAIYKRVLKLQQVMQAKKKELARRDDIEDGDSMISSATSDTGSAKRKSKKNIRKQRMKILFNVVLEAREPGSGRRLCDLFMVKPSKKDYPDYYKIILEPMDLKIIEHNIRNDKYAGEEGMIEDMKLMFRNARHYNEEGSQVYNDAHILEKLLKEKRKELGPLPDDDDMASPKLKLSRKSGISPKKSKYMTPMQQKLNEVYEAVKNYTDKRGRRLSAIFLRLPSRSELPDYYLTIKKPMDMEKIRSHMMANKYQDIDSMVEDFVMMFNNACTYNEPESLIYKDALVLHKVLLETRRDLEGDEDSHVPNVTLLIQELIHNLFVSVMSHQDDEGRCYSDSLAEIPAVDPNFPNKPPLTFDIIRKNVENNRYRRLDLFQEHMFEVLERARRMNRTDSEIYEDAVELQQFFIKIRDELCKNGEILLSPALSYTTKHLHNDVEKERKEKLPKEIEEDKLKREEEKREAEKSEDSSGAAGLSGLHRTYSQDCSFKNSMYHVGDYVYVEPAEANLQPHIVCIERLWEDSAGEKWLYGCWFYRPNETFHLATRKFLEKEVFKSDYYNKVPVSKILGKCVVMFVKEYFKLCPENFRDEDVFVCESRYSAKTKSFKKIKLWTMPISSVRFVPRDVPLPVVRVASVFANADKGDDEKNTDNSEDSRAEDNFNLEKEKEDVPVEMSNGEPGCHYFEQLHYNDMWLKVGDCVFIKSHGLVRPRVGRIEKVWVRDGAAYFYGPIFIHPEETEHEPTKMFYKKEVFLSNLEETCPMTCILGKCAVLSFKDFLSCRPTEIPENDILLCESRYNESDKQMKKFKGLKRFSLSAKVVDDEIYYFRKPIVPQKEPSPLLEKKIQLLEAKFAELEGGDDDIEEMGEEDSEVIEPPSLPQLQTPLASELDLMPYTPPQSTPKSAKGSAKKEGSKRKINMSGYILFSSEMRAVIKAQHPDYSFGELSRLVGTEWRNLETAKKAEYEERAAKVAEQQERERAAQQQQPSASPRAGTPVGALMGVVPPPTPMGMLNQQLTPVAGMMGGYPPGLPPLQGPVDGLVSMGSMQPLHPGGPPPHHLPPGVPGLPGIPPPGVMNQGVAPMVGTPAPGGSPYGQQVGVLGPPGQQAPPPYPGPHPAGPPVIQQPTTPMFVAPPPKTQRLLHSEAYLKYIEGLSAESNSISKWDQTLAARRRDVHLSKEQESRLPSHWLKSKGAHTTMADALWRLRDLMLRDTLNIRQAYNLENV
# T8 sequence (P40337 whole entry): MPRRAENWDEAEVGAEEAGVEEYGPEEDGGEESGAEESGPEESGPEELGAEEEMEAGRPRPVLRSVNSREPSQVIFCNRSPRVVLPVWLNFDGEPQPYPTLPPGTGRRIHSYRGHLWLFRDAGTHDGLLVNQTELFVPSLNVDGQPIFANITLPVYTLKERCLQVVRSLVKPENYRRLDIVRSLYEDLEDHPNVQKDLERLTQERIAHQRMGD
# [18] = molecular target: T7, von Hippel-Lindau disease tumor suppressor/SWI/SNF-related matrix-associated actin-dependent regulator of chromatin subfamily A member 2; experiment: PROTAC activity at SMARCA2/VHL in human NCI-H1568 cells assessed as degradation protein measured after 18 hrs; type: cell-based
# [19] = molecular target: T8, Protein polybromo-1/von Hippel-Lindau disease tumor suppressor; experiment: PROTAC activity at PBRM1/VHL in human NCI-H1568 cells assessed as degradation protein measured after 18 hrs; type: cell-based
# [20] = molecular target: SWI/SNF-related matrix-associated actin-dependent regulator of chromatin subfamily A member 2 (Homo sapiens, UniProt P51531); experiment: Inhibition of SMARCA2 BD (unknown origin)
# [21] = molecular target: SWI/SNF-related matrix-associated actin-dependent regulator of chromatin subfamily A member 4 (Homo sapiens, UniProt P51532); experiment: Inhibition of SMARCA4 BD (unknown origin)
# [22] = Inhibition of […] BD5 (unknown origin); parameters: species or system Homo sapiens
# MV4-11 = experiment: Antiproliferative activity against human MV4-11 cells measured after 7 days; type: functional, cell-based; conditions: MV4-11, 168 h
# SK-MEL-5 = experiment: Antiproliferative activity against human SK-MEL-5 cells measured after 7 days; type: functional, cell-based; conditions: SK-MEL-5, 168 h
# [23] = Antiproliferative activity against human NCI-H1568 cells measured after 7 days; type: functional, cell-based; conditions: NCI-H1568, 168 h
# KARPAS-422 = experiment: Antiproliferative activity against human KARPAS-422 cells assessed as growth inhibition after 14 days by Cell Titer-Glo luminescent assay; type: functional; conditions: KARPAS-422, 336 h, time 14 day
# [24] = molecular target: von Hippel-Lindau disease tumor suppressor/Polycomb protein EED (Homo sapiens, UniProt O75530+P40337); experiment: PROTAC activity at PRC2 catalytic core EED/VHL (unknown origin) measured after 24 hrs by Western blot analysis; type: protein assay
# von Hippel-Lindau disease tumor suppressor/Polycomb protein EED, sequence (O75530 whole entry): as the sequence (O75530 whole entry) above
# von Hippel-Lindau disease tumor suppressor/Polycomb protein EED, sequence (P40337 whole entry): as the sequence (P40337 whole entry) above
# [25] = molecular target: von Hippel-Lindau disease tumor suppressor/Histone-lysine N-methyltransferase EZH2 (Homo sapiens, UniProt P40337+Q15910, Y641N); experiment: PROTAC activity at PRC2 catalytic core EZH2/EZH2 Y641N mutant/VHL (unknown origin) measured after 24 hrs by Western blot analysis
# [26] = molecular target: von Hippel-Lindau disease tumor suppressor/Polycomb protein SUZ12 (Homo sapiens, UniProt P40337+Q15022); experiment: PROTAC activity at PRC2 catalytic core SUZ12/VHL in human DLBCL cells measured after 24 hrs by Western blot analysis; type: cell-based
# Polycomb protein EED [27] = molecular target: T2, Polycomb protein EED; experiment: Inhibition of PRC2 catalytic core EED (unknown origin)
# [28] = molecular target: von Hippel-Lindau disease tumor suppressor/Bromodomain-containing protein 2 (Homo sapiens, UniProt P25440+P40337); experiment: PROTAC activity at BRD2/VHL in human 22Rv1 cells assessed as protein degradation measured after 16 hrs; type: cell-based
# [29] = molecular target: Histone-lysine N-methyltransferase EZH1 (Homo sapiens, UniProt Q92800); experiment: Inhibition of EZH1 methyltransferase activity (unknown origin) assessed `transfer of [3H]methyl group from SAM to substrate by biochemical assay
# [30] = molecular target: Histone-lysine N-methyltransferase EZH2 (Homo sapiens, UniProt Q15910); experiment: Inhibition of EZH2 methyltransferase activity (unknown origin) assessed `transfer of [3H]methyl group from SAM to substrate by biochemical assay
# [31] = molecular target: T6, Protein cereblon/Protein deacetylase HDAC6; experiment: PROTAC activity at HDAC6/CRBN in human MM.1S cells; type: cell-based, MM1.S
# MM1.S = experiment: Growth inhibition of human MM1.S cells; type: functional
compound,measurement,setting,value
CCCOc1cccc(Oc2cc3c(cc2NS(=O)(=O)c2ccc(OC)c(OC)c2)n(C)c(=O)n3C)c1,IC50,[1],43 nM
CNC(=O)CCc1ccc(-c2cnc(NCc3c(F)ccc4c3CCO4)n3cnnc23)c(C)n1,Kd,Polycomb protein EED [2],0.245 nM
same,pIC50,[3],8.43
CC(=O)N[C@H](C(=O)N1C[C@H](O)C[C@H]1C(=O)NCc1ccc(-c2scnc2C)cc1)C(C)(C)SCCCCCNC(=O)C[C@@H]1N=C(c2ccc(Cl)cc2)c2c(sc(C)c2C)-n2c(C)nnc21,Kd,[4],111 nM
same,Kd,[5],94 nM
same,Kd,[6],35 nM
same,Kd,[7],39 nM
same,Kd,[8],75 nM
same,Kd,[9],44 nM
CCCCN(Cc1ccc(C(=O)NO)cc1)C(=O)Nc1ccc(NC(=O)CCCc2cn(CCOCCNc3cccc4c3C(=O)N(C3CCC(=O)NC3=O)C4=O)nn2)cc1 (stereo unspecified),EC50,[10],3.2 nM
CCCOc1cccc(Oc2cc3c(cc2NS(=O)(=O)c2cccc(C(=O)NCCOCCOCCOCC(=O)N[C@H](C(=O)N4C[C@H](O)C[C@H]4C(=O)NCc4ccc(-c5scnc5C)cc4)C(C)(C)C)c2)n(C)c(=O)n3C)c1,Activity,[11],72%
same,Activity,[12],72%
COc1ccc(/C=N/NC(=O)CCCCCCCC(=O)NO)cc1,IC50,Histone deacetylase 1,2.28 nM
same,IC50,Histone deacetylase 2,3.12 nM
same,IC50,Histone deacetylase 3,1.82 nM
same,IC50,[13],35.8 nM
same,IC50,Histone deacetylase 8,60.3 nM
same,IC50,[14],11.1 nM
Cc1ncsc1-c1ccc(CNC(=O)[C@H]2C[C@H](O)CN2C(=O)[C@H](NC(=O)C2(F)CC2)C(C)(C)C)c(OCCOc2ccc(CN3CCN(c4cc(-c5ccccc5O)nnc4N)CC3)cc2)c1,EC50,[15],6 nM
same,EC50,[16],11 nM
same,EC50,[17],32 nM
same,EC50,[18],3.3 nM
same,EC50,[19],15.6 nM
same,IC50,[20],770 nM
same,IC50,[21],560 nM
same,IC50,[22],504 nM
same,IC50,MV4-11,28 nM
same,IC50,SK-MEL-5,77 nM
same,IC50,[23],68 nM
Cc1nc(CCC(=O)NCCCCC(=O)N[C@@H](C(=O)N2C[C@H](O)C[C@H]2C(=O)NCc2ccc(-c3scnc3C)cc2)C(C)(C)C)ccc1-c1cnc(NCc2c(F)ccc3c2CCO3)n2cnnc12,Kd,Polycomb protein EED [2],0.537 nM
same,pIC50,[3],8.11
same,GI50,KARPAS-422,57 nM
Cc1ncsc1-c1ccc(CNC(=O)[C@@H]2C[C@@H](O)CN2C(=O)[C@@H](NC(=O)CCCNC(=O)c2ccc(-c3cnc(NCc4ccco4)n4cnnc34)cc2)C(C)(C)C)cc1,EC50,[24],610 nM
same,EC50,[25],300 nM
same,EC50,[26],590 nM
same,IC50,Polycomb protein EED [27],247 nM
"Cc1ncsc1-c1ccc([C@H](C)NC(=O)[C@@H]2C[C@@H](O)CN2C(=O)C(NC(=O)COCCCOCCNC(=O)C[C@@H]2N=C(c3ccc(Cl)cc3)c3c(sc(C)c3C)-n3c(C)nnc32)C(C)(C)C)cc1 (single isomer, unassigned)",Kd,[4],34 nM
same,Kd,[5],4.7 nM
same,EC50,[28],< 5 nM
Cc1nc(CCC(=O)NCCOc2ccc(OCC(=O)N[C@@H](C(=O)N3C[C@H](O)C[C@H]3C(=O)NCc3ccc(-c4scnc4C)cc3)C(C)(C)C)cc2)ccc1-c1cnc(NCc2c(F)ccc3c2CCO3)n2cnnc12,Kd,Polycomb protein EED [2],0.955 nM
same,pIC50,[3],8.17
same,GI50,KARPAS-422,45 nM
Cc1cc(C)c(CNC(=O)c2cc(-c3ccc(N4CCN(C(C)C)CC4)nc3)cc3c2cnn3C(C)C)c(=O)[nH]1,IC50,[29],> 2500 nM
Cc1cc(C)c(CNC(=O)c2cc(-c3ccc(N4CCN(CCNC(=O)CC56CC7CC(CC(C7)C5)C6)CC4)nc3)cc3c2cnn3C(C)C)c(=O)[nH]1,IC50,[30],120 nM
O=C1CCC(N2C(=O)c3cccc(NCCOCCOCCn4cc(CCCCN(Cc5ccc(C(=O)NO)cc5)C(=O)Nc5ccccc5)nn4)c3C2=O)C(=O)N1 (stereo unspecified),EC50,[31],3.8 nM
same,GI50,MM1.S,1210 nM
